Data set [1] deals with SW480 (human primary colon cancer). Description: MTT cytotoxicity assay, SW480. Particulars: SW480, 72 h. The class given is cell-based. How it is done:
(§1) The human primary (SW480), metastatic (SW620) colon cancer, metastatic prostate cancer (PC3) and human immortal keratinocyte (HaCaT) cell lines were purchased from the American Type Culture Collection (ATCC, Rockville, USA). The cells were cultured in medium according to protocols (MEM for SW480 and SW620, RPMI 1640 for PC3 and DMEM for HaCaT cells) supplemented with 10% fetal bovine serum (FBS), penicillin (100 U/mL) and streptomycin (100 μg/mL) and cultured in 37 °C/ 5% CO2 humidified incubator. The cells were cultured until appropriate confluence was achieved (80–90%). Next, they were harvested by treatment with 0.25% trypsin (Gibco Life Technologies, USA) and used for studies.
(§2) Cells without studied compounds in medium were used as a control.
(§3) The cell viability was assessed by determination of MTT salt (3-(4,5-dimethylthiazol-2-yl)-2,5-diphenyltetrazolium bromide) conversion by mitochondrial dehydrogenase. MTT assay was performed as previously described. Experiments were repeated three times. Cell viability was presented as a percentage of MTT reduction in the treated cells versus the control cells. Number of viable cells cultured without studied compounds was assumed to be 100%. Decreased relative MTT level means decreased cell viability. Thiourea complexes with the highest cytotoxic potential assessed by MTT determination (with the lowest IC50) were chosen for subsequent assessments of cytotoxicity mechanisms.

Data set [2] has as its system SW620 (human metastatic colon cancer). The data set can be described thus: MTT cytotoxicity assay, SW620. The class given is cell-based. Particulars: SW620, 72 h. The method, then:
as §1, §2
The cell viability was assessed by determination of MTT salt (3-(4,5-dimethylthiazol-2-yl)-2,5-diphenyltetrazolium bromide) conversion by mitochondrial dehydrogenase. MTT assay was performed as previously described. Experiments were repeated three times. Cell viability was presented as a percentage of MTT reduction in the treated cells versus the control cells. Number of viable cells cultured without studied compounds was assumed to be 100%. Decreased relative MTT level means decreased cell viability.

Data set [3] deals with PC3 (human metastatic prostate cancer). Description: MTT cytotoxicity assay, PC3. Format: cell-based. Particulars: PC3, 72 h, MTT. How it is done: as §1, §2, §3
The test system of data set [4] is HaCaT (human immortal keratinocyte cell line). The data set can be described thus: MTT cytotoxicity assay, HaCaT. Particulars: HaCaT normal cells, 72 h. Format: cell-based. How it is done: as §1, §2, §3
The subject of data set [5] is all strains. The data set can be described thus: MIC, all strains. Format: cell-based. The method, then:
The antimicrobial activity of the compounds was tested on Gram-positive bacteria (Staphylococcus aureus NCTC 4163, Staphylococcus aureus ATCC 25923, Staphylococcus aureus ATCC 6538, Staphylococcus aureus ATCC 29213, Staphylococcus epidermidis ATCC 12228, Staphylococcus epidermidis ATCC 35984), Gram-negative rods (Escherichia coli ATCC 10538, Escherichia coli ATCC 25922, Pseudomonas aeruginosa ATCC 15442, Pseudomonas aeruginosa ATCC 27863) and yeasts (Candida albicans ATCC 10231, Candida albicans ATCC 90028, Candida parapsilosis ATCC 22019). Hospital methicillin-resistant strains of Staphylococcus aureus and Staphylococcus epidermidis were obtained from the collection of the Department of Pharmaceutical Microbiology, Medical University of Warsaw, Poland.
Antifungal activities were assessed using Mueller–Hinton agar + 2% glucose and 0.5 µg/mL methylene blue dye medium. Sterile filter paper discs (9 mm diameter, Whatman Number 3 chromatography paper) were dripped with tested compound solutions (in dimethylsulfoxide, DMSO) to load 400 μg of a given compound per disc. […] The results (diameter of the growth inhibition zone) were read after 18 h of incubation at 35 °C. […] Minimal inhibitory concentrations (the lowest concentration of a tested agent that prevents visible growth of a microorganism) were read after 18 h (bacteria) or 24 h (yeasts) of incubation at 35 °C.

Data set [6] relates to HaCaT cells. Description: LDH release assay, HaCaT. Format: cell-based, human. To be noted: doxorubicin (1.5 μM stated for the cancer lines). How it is done: The presence of lactate dehydrogenase (LDH) in culture medium indicates a disturbance of the integrity of the cellular membrane. The LDH activity was performed after 72 h incubation of cells (1 × 10^4 cells per well) in 96-well plates with selected compounds according to manufacturer’s protocol (Roche Diagnostics, Germany), as was described by Chrzanowska et al.. Compound mediated cytotoxicity was determined using equation: ((A test sample−A low control)/ (A high control−A low control)) × 100% (A-absorbance), where “low control” means cells in medium with 2% FBS without tested compounds, and “high control” means cells incubated in medium with 2% FBS and 1% Triton X-100 (100% LDH release). The cytotoxicity was expressed as percentage of LDH release as compared with the maximum release of LDH from Triton-X-100-treated cells.

In data set [7] the test system is SW480 cells. Description: Annexin V-FITC/PI flow cytometry, SW480. To be noted: SW480, 72 h. Format: cell-based, human. The method, then: (§4) The cells were cultured and harvested under the conditions described in the cell culture section. […] The effect of these compounds on the process of early and late apoptosis and necrosis was determined, as described previously, by dual staining with annexin V-FITC and propidium iodide according to manufacturer’s protocol (Becton Dickinson). The cells that were annexin V-FITC positive and PI-negative were identified as early apoptotic and annexin V-FITC and PI-positive as late apoptotic or necrotic.

Data set [8] has as its system SW620 cells. Description: Annexin V-FITC/PI flow cytometry, SW620. Format: cell-based, human. To be noted: SW620, 72 h. How it is done:
as §4

For data set [9], the system named is PC3 cells. Description: Annexin V-FITC/PI flow cytometry, PC3. Format: cell-based, human. To be noted: PC3, 72 h. The method, then: as §4
Data set [10] relates to HaCaT cells. Description: Annexin V-FITC/PI flow cytometry, HaCaT. The class given is cell-based, human. To be noted: 72 h. The method, then:
as §4

The test system of data set [11] is interleukin-6 (IL-6). The data set can be described thus: IL-6 level assay (ELISA). To be noted: PC3, IC50 dose, 72 h. Format: cell-based, human. How it is done:
IL-6 concentration at all studied cancer cells and normal HaCaT cell lines was measured by ELISA kit (Diaclon SAS Besancon Cedex, France). […] IL-6 in cell culture supernatant was measured using enzyme-linked immunosorbent assay in accordance with the manufacturer’s protocol.

The test system of data set [12] is HaCaT cells. Further details: method as in ref 1S. To be noted: also printed as 2 mM; ref 1S; cited from earlier work.
In data set [13] the test system is colon cancer cells. Further details: method as in ref 2S. Particulars: at 100 μM, ref 2S; cited from earlier work.
Data set [14] concerns PC3 cells. Also on record: method as in ref 3S. Particulars: 200 μM, ref 3S; cited from earlier work.
Data set [15] concerns PANC-1. Also on record: method as in ref 3S. To be noted: PANC-1, 100 μM; ref 3S; cited from earlier work.
Data set [16] concerns HaCaT cell. Also on record: method as in PMID 30248936. To be noted: at the concentration 8 µM; cited from earlier work.
Data set [17] has as its system clinical methicillin-resistant strains of S. aureus (MRSA) and S. epidermidis (MRSE). Particulars: cited from earlier work.
Data set [18] concerns standard bacterial strains. Further details: method as in PMID 29499458. Particulars: cited from earlier work.

Consider six compounds from article PMC8584173, “The Cytotoxic Effect of Copper (II) Complexes with Halogenated 1,3-Disubstituted Arylthioureas on Cancer and Bacterial Cells” (International Journal of Molecular Sciences, 2021).

On to `[Cl][Cu][Cl]` [CuCl2, copper (II) chloride, reference compound], for which the IC50 in data set [1] is 109 ± 7.6 µM; in [2], 96.3 ± 5.2 µM; in data set [3] it was 106 ± 6.3 µM; in data set [4], 114 ± 4.8 µM; in [4] (listed as copper (II) chloride) it was > 100 µM. In addition, the MIC in data set [5] was ≥ 128 µg/mL.
In the case of `N.N.[Cl][Pt][Cl]` [Cisplatin, reference compound], the IC50 in [1] was determined as 10.4 ± 0.9 µM; in [2] it was 6.7 ± 1.1 µM; in [4] it was 6.3 ± 0.7 µM.
For the compound `COc1cccc2c1C(=O)c1c(O)c3c(c(O)c1C2=O)C[C@@](O)(C(=O)CO)C[C@@H]3O[C@H]1C[C@H](N)[C@H](O)[C@H](C)O1` [Doxorubicin, reference compound], the IC50 in data set [1] (Homo sapiens) was 0.75 ± 0.1 µM; in data set [4] (Homo sapiens), 0.29 ± 0.1 µM. In addition, the LDH release in data set [6] is 80%. Further, the “cells at the necrotic stage” value in data set [7] amounted to 86%; in data set [8] it was 51%; in data set [9] it was 50%; in data set [10], 42%. For the same compound, the “late apoptosis, % of cells” value in [9] was 23%. For the same compound, in data set [11], the “reduction of IL-6 secretion, times” value is “almost twofold”.
For `CN(C)C=O` [DMF, dimethylformamide], in data set [12], the “concentration at which DMF influenced HaCaT cells” value is 140 µg/mL. Moreover, in data set [13], the LDH release entry is given as “not increase LDH release”. The apoptosis was 85% in data set [14] and 30% in data set [15].
As for `O=[N+]([O-])c1cc(NC(=S)Nc2ccc(Cl)c(Cl)c2)ccc1Cl` [Compound L5, 1-(4-chloro-3-nitrophenyl)-3-(3,4-dichlorophenyl)thiourea], in data set [16], the “decrease in HaCaT cell viability” value was “approximately 20%”.
Consider “copper (II) complex of 1-(3-chloro-4-fluorophenyl)-3-[3-trifluoromethyl)phenylthiourea”, for which the MIC is 4 to 8 µg/mL in [17] and 4 to 256 µg/mL in data set [18].
